Results from PubChem BioAssay AID1963973 (Molecular Pharmacology Branch, DTP, NCI, 2024).
pIC50: −log10 of the molar value.

System: 883617-216-R-J1-PDC tumor spheroids, viability
Test: Anticancer human tumor 883617-216-R-J1-PDC patient-derived bladder carcinoma cell line growth inhibition [PI3K]
Details: spheroids with HUVEC and MSC; for pIC50: curve of first compound; for viability, T/C: stronger effect = lower value
Text: Combinatorial screen of targeted agents with the PI3K inhibitors inavolisib, alpelisib, duvelisib, and copanlisib in multi-cell type tumor spheroids
A high-throughput screen of multi-cell type tumor spheroids was designed to identify active combinations of targeted small molecules and PI3K pathway inhibitors. Complex spheroids include a stromal component modeled by human endothelial cells (HUVEC) and fibroblasts modeled by human mesenchymal stem cells (MSCs). The concentration ranges selected for each drug and investigational agent were based upon clinically achievable concentrations if the clinical Cmax of the agent was known.
Compounds. The drugs and investigational agents: inavolisib (NSC800729), alpelisib (NSC765974), duvelisib (NSC772469), copanlisib (NSC816437), ipatasertib (NSC767898), afuresertib (NSC778305), talazoparib (NSC767125), sapanisertib (NSC764658), selumetinib (NSC741078), tovorafenib (DAY101, NSC766906), vemurafenib (NSC761431), ravoxertinib (NSC781343), sotorasib (NSC818433), MRTX1133 (NSC 836407), abemaciclib (NSC 768073), palbociclib (NSC758247), venetoclax (NSC 766270), SY5609 (NSC837396), enzalutamide (NSC755605), and darolutamide (NSC825331), were obtained from the National Cancer Institute (NCI) Developmental Therapeutics Program Chemical Repository. The FDA-approved anticancer drug set is available from the NCI Developmental Therapeutics Program. […] The stock solutions were prepared in dimethyl sulfoxide (DMSO, Sigma-Aldrich, St. Louis, MO, cat. D2650) at 800-fold the tested concentration and stored at -70 degrees C prior to their use. All drugs and investigational agents were tested over a range starting from a high concentration at or near the clinical Cmax and decreasing in half-log increments. If the clinical Cmax for an agent had not been determined, the highest concentration tested was 10 microM.
Cell Culture. All cells were maintained in an incubator at 37 degrees C and 5% CO2 with 95% humidity. The PDC lines were cultured according to standard operating procedures established by the NCI PDMR (https://pdmr.cancer.gov/sops/default.htm). All PDCs were thawed and cultured in Matrigel-coated flasks prepared with a working solution of 1X Ham's F-12 nutrient mix, without supplementation (Invitrogen, Waltham, MA, cat. 11765054), 100 U/mL penicillin-streptomycin (Invitrogen, cat. 15140122), and 2.5% Matrigel (Corning Inc., Corning, NY, cat. 354248) for the first three passages. The 354836-022-R-J1-PDC, 475296-252-R-J1-PDC, and 997726-040-R-J2-PDC lines were cultured in 6A media, which includes advanced DMEM/F-12 (Thermo Fisher Scientific, cat. 12634028), 10 mM HEPES (Thermo Fisher Scientific, cat. 15630080), 1X GlutaMAX supplement (Thermo Fisher Scientific, cat. 35050061), 0.1 mg/mL primocin (InvivoGen, San Diego, CA, cat. ant-pm-2), 10% defined fetal bovine serum, heat inactivated (HyClone Laboratories Inc., Logan, UT, cat. SH30070.03HI), 50% L-WRN conditioned media (ATCC, cat. CRL-3276), 1.25 mM N-Acetyl-L-cysteine (Sigma-Aldrich, cat. A9165), 10 mM nicotinamide (Sigma-Aldrich, cat. N0636), 1X B-27 supplement (Thermo Fisher Scientific, cat. 17504044), 1X N-2 supplement (Thermo Fisher Scientific, cat. 17502048), and 10 microM Y-27632 dihydrochloride (Tocris Bioscience, Bristol, United Kingdom, cat. 1254). The 624824-186-R-J2-PDC line was cultured in 6C/Colon 1B media, which includes all 6A media components plus 50 ng/mL human EGF recombinant protein (Thermo Fisher Scientific, cat. PHG0311). […]
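Further: spheroids exposed to agents for 7 days before the viability read.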

Which results are given for `CNC(=O)c1ccc(N2C(=S)N(c3ccc(C#N)c(C(F)(F)F)c3)C(=O)C2(C)C)cc1F` + CC(Nc1ccc2c(c1)OCCn1cc(N3C(=O)OCC3C(F)F)nc1-2)C(N)=O?
pIC50 (second compound 0.00316 µM): < 5.00; pIC50 (second compound 0.01 µM): < 5.00; pIC50 (second compound 0.0316 µM): < 5.00; pIC50 (second compound 0.1 µM): > 7.50; pIC50 (second compound 0.316 µM): > 7.50; pIC50 (second compound 1 µM): > 7.50; viability, T/C (second compound 0.00316 µM, first compound 0.0316 µM): 94.3%; viability, T/C (second compound 0.00316 µM, first compound 0.1 µM): 78.7%; viability, T/C (second compound 0.00316 µM, first compound 0.316 µM): 97.5%; viability, T/C (second compound 0.00316 µM, first compound 1 µM): 104%; viability, T/C (second compound 0.00316 µM, first compound 3.16 µM): 82.2%; viability, T/C (second compound 0.00316 µM, first compound 10 µM): 62.4%; viability, T/C (second compound 0.01 µM, first compound 0.0316 µM): 90.3%; viability, T/C (second compound 0.01 µM, first compound 0.1 µM): 74.3%; viability, T/C (second compound 0.01 µM, first compound 0.316 µM): 82.6%; viability, T/C (second compound 0.01 µM, first compound 1 µM): 97.5%; viability, T/C (second compound 0.01 µM, first compound 3.16 µM): 82.3%; viability, T/C (second compound 0.01 µM, first compound 10 µM): 63.4%; viability, T/C (second compound 0.0316 µM, first compound 0.0316 µM): 61.1%; viability, T/C (second compound 0.0316 µM, first compound 0.1 µM): 62.5%; viability, T/C (second compound 0.0316 µM, first compound 0.316 µM): 59%; viability, T/C (second compound 0.0316 µM, first compound 1 µM): 75.8%; viability, T/C (second compound 0.0316 µM, first compound 3.16 µM): 79.8%; viability, T/C (second compound 0.0316 µM, first compound 10 µM): 44.8%; viability, T/C (second compound 0.1 µM, first compound 0.0316 µM): 35.2%; viability, T/C (second compound 0.1 µM, first compound 0.1 µM): 39.1%; viability, T/C (second compound 0.1 µM, first compound 0.316 µM): 44.9%; viability, T/C (second compound 0.1 µM, first compound 1 µM): 41.9%; viability, T/C (second compound 0.1 µM, first compound 3.16 µM): 42.5%; viability, T/C (second compound 0.1 µM, first compound 10 µM): 27.9%; viability, T/C (second compound 0.316 µM, first compound 0.0316 µM): 20.5%; viability, T/C (second compound 0.316 µM, first compound 0.1 µM): 23.9%; viability, T/C (second compound 0.316 µM, first compound 0.316 µM): 21.2%; viability, T/C (second compound 0.316 µM, first compound 1 µM): 26.2%; viability, T/C (second compound 0.316 µM, first compound 3.16 µM): 48.8%; viability, T/C (second compound 0.316 µM, first compound 10 µM): 19.3%; viability, T/C (second compound 1 µM, first compound 0.0316 µM): 16.9%; viability, T/C (second compound 1 µM, first compound 0.1 µM): 11.8%; viability, T/C (second compound 1 µM, first compound 0.316 µM): 16.3%; viability, T/C (second compound 1 µM, first compound 1 µM): 19.5%; viability, T/C (second compound 1 µM, first compound 3.16 µM): 17.2%; viability, T/C (second compound 1 µM, first compound 10 µM): 12.3%
